Experimental data published in EP3763226A1, “COMPOSITION FOR REDUCING HAIR LOSS AND IMPROVING HAIR GROWTH IN CASES OF ANDROGENETIC ALOPECIA” (Merz Pharma GmbH & Co. KGaA, priority 2019, dated 2021).

Experiments:
[1] = system: ex-vivo Kultur von Haarfollikeln; conditions: ex vivo culture of hair follicles; cited from earlier work
5-α-Reduktase Typ I = target: T1, 5-α-Reduktase Typ I (Homo sapiens, UniProt P18405); experiment: Cell-free in vitro 5α-reductase type I inhibition assay (HEK I cell homogenate, androstenedione conversion, LC-HRMS); format: biochemical; conditions: concentration giving 50% inhibition; Abbildung 1; read-out: IC50-Wert für die 5 alpha Reduktase vom Typ I
T1 construct: expressed in transfected cells; host or cells: HEK293 (HEK I), stably transfected; gift of Prof; R. W. Hartmann, Saarland University; particulate fraction of the cell homogenate used
T1 sequence (P18405 1-259): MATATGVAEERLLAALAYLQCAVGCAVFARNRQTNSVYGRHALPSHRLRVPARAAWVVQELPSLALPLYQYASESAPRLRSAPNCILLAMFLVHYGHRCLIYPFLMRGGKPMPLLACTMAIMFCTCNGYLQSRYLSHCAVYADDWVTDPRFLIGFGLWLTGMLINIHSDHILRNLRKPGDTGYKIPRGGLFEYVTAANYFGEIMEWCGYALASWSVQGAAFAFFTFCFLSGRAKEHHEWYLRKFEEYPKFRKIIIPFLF
Protocol: (§1) Die HEK I Zellen exprimieren rekombinante 5 alpha Reduktase vom Typ I, während die HEK II Zellen rekombinante 5 alpha Reduktase vom Typ II exprimieren.
(§2) HEK I und HEK II Zellen wurden in DMEM (Dulbecco's modified eagle medium, ccpro GmbH) (pH 7.4) mit 10 % FCS (Fetal calf serum, PAN), Penicillin/Streptomycin (100 U/ml und 100 µg/ml) und 0.5 mg/ml Geneticin-418-sulfat in einer befeuchteten 5 % CO2 Atmosphäre bei 37°C kultiviert.
(§3) Herstellung der 5-α-Reduktase Typ I und II enthaltenen Zellfraktionen: Für den Zell-freien in vitro assays wurden HEK I oder HEK II geerntet, durch Zentrifugation (500 x g) vom Zellkulturmedium befreit und re-suspended in einem Homogenisierungs-Puffer bestehend aus 50 mM Tris-HCI (pH 7.4), 300 mM Saccharose, 0.1 mM EDTA, 10 mM DTT and 100 µM PMSF. Durch Einfrieren bei - 196 °C und Auftauen auf Eis, wurden die Zellen solubilisiert. Nach einer Inkubations-Zeitraum von 30 min bei 4°C mit 1 mg/ml DNAse in 50 mM MgCl2 und zwischenzeitlich kräftigen Schütteln, wurde das erhaltene Homogenisat bei 20,200 x g in einer gekühlten Zentrifuge für 50 min bei 4°C zentrifugiert. Das Pellet wurde im Homogenisierungs-Puffer re-suspendiert und wieder bei 20,200 x g für 30 Minuten bei at 4°C zentrifugiert. Diese Prozedur wurde zweimal wiederholt. […] Der Protein-Gehalt wurde gemäß der BCA-Methode mit dem kommerziell erhältlichen BCA-Protein Assay Kit von Pierce quantifiziert. […]

5-α-Reduktase Typ II = target: T2, 5-α-Reduktase Typ II (Homo sapiens, UniProt P31213); experiment: Cell-free in vitro 5α-reductase type II inhibition assay (HEK II cell homogenate, androstenedione conversion, LC-HRMS); format: biochemical
T2 sequence (P31213 1-254): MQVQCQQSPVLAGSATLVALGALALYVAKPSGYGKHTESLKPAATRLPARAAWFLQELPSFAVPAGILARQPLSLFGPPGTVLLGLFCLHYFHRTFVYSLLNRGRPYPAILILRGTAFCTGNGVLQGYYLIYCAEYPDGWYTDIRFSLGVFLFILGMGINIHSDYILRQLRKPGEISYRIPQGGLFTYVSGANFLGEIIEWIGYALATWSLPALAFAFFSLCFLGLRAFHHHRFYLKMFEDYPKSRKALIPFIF
Protocol: as §1, §2, §3

Row | SMILES | Haarwachstum [1] | IC50 (5-α-Reduktase Typ I) | IC50 (5-α-Reduktase Typ II; concentration giving 50% inhibition, Abbildung 1, read-out: IC50-Wert für die 5 alpha Reduktase vom Typ II) | Wirkung auf die 5-alpha Reduktase vom Typ II stärker als auf Typ I (5-α-Reduktase Typ II; ratio of the concentrations for 50% inhibition, type I vs type II)
1 | O=C(O[C@@H]1Cc2c(O)cc(O)cc2O[C@@H]1c1cc(O)c(O)c(O)c1)c1cc(O)c(O)c(O)c1 [Epigallocatechin-3-gallate] | stimuliert | – | – | –
2 | CC(C)(C)NC(=O)[C@H]1CC[C@H]2[C@@H]3CC[C@H]4NC(=O)C=C[C@]4(C)[C@H]3CC[C@]12C [Finasterid] | – | 376 nM | 1.89 nM | ca. 200 fach
